From BindingDB's records for doi:10.1021/jm00163a034 (Eisai, 1990) come the findings set out here.

Assay [1] is described as follows: Binding affinities against Opioid receptor kappa 1 of guinea pig brain membrane using [3H]U69,593 as the radioligand using competition binding assays.
A short description of assay [2]: Binding affinities against Opioid receptor delta 1 of guinea pig brain membrane using [3H]DPDPE as the radioligand using competition binding assays.
A short description of assay [3]: Evaluated for inhibitory activity against Opioid receptor kappa 1 of rabbit vas deferens (RVD).

SMILES strings stand for the structures. Square brackets hold non-standard residues; d marks the D form. Peptide text beside a SMILES is read from it. Phe(4-NO2) = N[CH](Cc1ccc([N+](=O)[O-])cc1)C(=O)O; NMeY = CN[CH](Cc1ccc(O)cc1)C(=O)O; Sar = CNCC(=O)O

For orientation: Ki means the equilibrium dissociation constant of an inhibitor or competing ligand from its target. Turning to `CNC(Cc1ccc(O)cc1)C(=O)NCC(=O)NCC(=O)NC(Cc1ccc([N+](=O)[O-])cc1)C(=O)NC(CC(C)C)C(=O)NC(CCCNC(=N)N)C(=O)NC(CCCNC(=N)N)C(=O)NC(CC(C)C)C(N)=O` (centres undefined) [2-[5-Guanidino-2-(5-guanidino-2-{2-[2-(2-{2-[3-(4-hydroxy-phenyl)-2-methylamino-propionylamino]-acetylamino}-acetylamino)-3-(4-nitro-phenyl)-propionylamino]-4-methyl-pentanoylamino}-pentanoylamino)-pentanoylamino]-4-methyl-pentanoic acid amide] (H-[NMeY]GG[Phe(4-NO2)]LRRL-NH2; configuration not given here), the Ki is 0.00077 µM in assay [1] and 0.029 µM in assay [2].
As a reminder, the IC50 is the point on the concentration scale where inhibition reaches its midpoint. As for `CN[C@@H](Cc1ccc(O)cc1)C(=O)NCC(=O)NCC(=O)N[C@@H](Cc1ccccc1)C(=O)N(C)[C@@H](CC(C)C)C(=O)N[C@@H](CCCNC(=N)N)C(=O)N[C@@H](CCCNC(=N)N)C(=O)N[C@H](CC(C)C)C(N)=O` [2-{5-Guanidino-2-[5-guanidino-2-(2-{[2-(2-{2-[3-(4-hydroxy-phenyl)-2-methylamino-propionylamino]-acetylamino}-acetylamino)-3-phenyl-propionyl]-methyl-amino}-4-methyl-pentanoylamino)-pentanoylamino]-pentanoylamino}-4-methyl-pentanoic acid amide], half-maximal inhibition in assay [3] (IC50) required 0.189 µM.
For `CCNC(=O)[C@@H](CC(C)C)NC(=O)[C@H](CCCNC(=N)N)N(C)C(=O)[C@H](CCCNC(=N)N)NC(=O)[C@H](CC(C)C)NC(=O)[C@H](Cc1ccccc1)NC(=O)CNC(=O)CNC(=O)[C@H](Cc1ccc(O)cc1)NC` [2-[2-(2-{2-[3-(4-Hydroxy-phenyl)-2-methylamino-propionylamino]-acetylamino}-acetylamino)-3-phenyl-propionylamino]-4-methyl-pentanoic acid (1-{[1-(1-ethylcarbamoyl-3-methyl-butylcarbamoyl)-4-guanidino-butyl]-methyl-carbamoyl}-4-guanidino-butyl)-amide], the Ki in assay [1] worked out at 0.0019 µM; in assay [2], 0.027 µM. In assay [3], this molecule registered an IC50 of 0.0026 µM.
For `CN[C@@H](Cc1ccc(O)cc1)C(=O)NCC(=O)NCC(=O)N[C@@H](Cc1ccccc1)C(=O)N[C@@H](CC(C)C)C(=O)N[C@@H](CCCNC(=N)N)C(=O)N(C)[C@@H](CCCNC(=N)N)C(=O)N[C@H](CC(C)C)C(N)=O` [2-{5-Guanidino-2-[(5-guanidino-2-{2-[2-(2-{2-[3-(4-hydroxy-phenyl)-2-methylamino-propionylamino]-acetylamino}-acetylamino)-3-phenyl-propionylamino]-4-methyl-pentanoylamino}-pentanoyl)-methyl-amino]-pentanoylamino}-4-methyl-pentanoic acid amide], the results for the Ki in assay [1] and in assay [2] were 0.0014 µM and 0.054 µM, respectively.
In turn, `CC(C)C[C@H](NC(=O)[C@H](CCCNC(=N)N)NC(=O)[C@H](CCCNC(=N)N)NC(=O)[C@H](CC(C)C)NC(=O)[C@H](Cc1ccccc1)NC(=O)CNC(=O)CN(C)C(=O)[C@@H](N)Cc1ccc(O)cc1)C(N)=O` [2-{2-[2-(2-{2-[2-(2-{[2-Amino-3-(4-hydroxy-phenyl)-propionyl]-methyl-amino}-acetylamino)-acetylamino]-3-phenyl-propionylamino}-4-methyl-pentanoylamino)-5-guanidino-pentanoylamino]-5-guanidino-pentanoylamino}-4-methyl-pentanoic acid amide] (H-Y[Sar]GFLRRL-NH2) came in with an IC50 in assay [3] of 0.738 µM.
Same read-out and setting: the result for `CN[C@@H](Cc1ccc(O)cc1)C(=O)NCC(=O)NCC(=O)N[C@@H](Cc1ccccc1)C(=O)N[C@H](C)C(=O)N[C@@H](CCCNC(=N)N)C(=O)N[C@@H](CCCNC(=N)N)C(=O)N[C@H](CC(C)C)C(N)=O` [2-[5-Guanidino-2-(5-guanidino-2-{2-[2-(2-{2-[3-(4-hydroxy-phenyl)-2-methylamino-propionylamino]-acetylamino}-acetylamino)-3-phenyl-propionylamino]-propionylamino}-pentanoylamino)-pentanoylamino]-4-methyl-pentanoic acid amide] reads 13 µM; that for `CN[C@@H](Cc1ccc(O)cc1)C(=O)NCC(=O)NNC(=O)N[C@@H](Cc1ccccc1)C(=O)N[C@@H](CC(C)C)C(=O)N[C@@H](CCCNC(=N)N)C(=O)N[C@@H](CCCNC(=N)N)C(=O)N[C@H](CC(C)C)C(N)=O`, 0.152 µM.
Take `CCNC(=O)[C@@H](CC(C)C)NC(=O)[C@H](CCCN=C(N)N)N(C)C(=O)[C@H](CCCN=C(N)N)NC(=O)[C@H](CC(C)C)NC(=O)[C@H](Cc1ccc([N+](=O)[O-])cc1)NC(=O)CNC(=O)CNC(=O)[C@H](Cc1ccc(O)cc1)NC` [2-{5-Guanidino-2-[(5-guanidino-2-{2-[2-(2-{2-[3-(4-hydroxy-phenyl)-2-methylamino-propionylamino]-acetylamino}-acetylamino)-3-(4-nitro-phenyl)-propionylamino]-4-methyl-pentanoylamino}-pentanoyl)-methyl-amino]-pentanoylamino}-4-methyl-pentanoic acidN-ethyl amide]: the Ki came out at 0.0039 µM in assay [1] and 0.018 µM in assay [2].
Consider `CC[C@H](C)[C@H](NC(=O)[C@H](CCCNC(=N)N)NC(=O)[C@H](CCCNC(=N)N)NC(=O)[C@H](CC(C)C)NC(=O)[C@H](Cc1ccccc1)NC(=O)CNC(=O)CNC(=O)[C@@H](N)Cc1ccc(O)cc1)C(N)=O` [2-[2-(2-{2-[2-(2-{2-[2-Amino-3-(4-hydroxy-phenyl)-propionylamino]-acetylamino}-acetylamino)-3-phenyl-propionylamino]-4-methyl-pentanoylamino}-5-guanidino-pentanoylamino)-5-guanidino-pentanoylamino]-3-methyl-pentanoic acid amide], for which the inhibitory constant (Ki) in assay [1] worked out at 0.0012 µM; in assay [2] it was 0.024 µM. In addition, in assay [3], 0.017 µM corresponded to half-maximal inhibition (IC50).
`CN[C@@H](Cc1ccc(O)cc1)C(=O)NCC(=O)NCC(=O)N[C@@H](Cc1ccccc1)C(=O)N[C@@H](CC(C)C)C(=O)N(C)[C@@H](CCCN=C(N)N)C(=O)N[C@@H](CCCN=C(N)N)C(=O)N[C@H](CC(C)C)C(N)=O` [2-{5-Guanidino-2-[5-guanidino-2-({2-[2-(2-{2-[3-(4-hydroxy-phenyl)-2-methylamino-propionylamino]-acetylamino}-acetylamino)-3-phenyl-propionylamino]-4-methyl-pentanoyl}-methyl-amino)-pentanoylamino]-pentanoylamino}-4-methyl-pentanoic acid amide] had an IC50 in assay [3] of 0.0011 µM.
Regarding `CCNC(=O)[C@@H](CC(C)C)NC(=O)[C@H](CCCN=C(N)N)N(C)C(=O)[C@H](CCCN=C(N)N)NC(=O)[C@@H]1CSSC[C@@H](NC(=O)[C@@H](N)Cc2ccc(O)cc2)C(=O)NCC(=O)N[C@@H](Cc2ccccc2)C(=O)N1` [13-[2-Amino-3-(4-hydroxy-phenyl)-propionylamino]-7-benzyl-6,9,12-trioxo-1,2-dithia-5,8,11-triaza-cyclotetradecane-4-carboxylic acid (1-{[1-(1-ethylcarbamoyl-3-methyl-butylcarbamoyl)-4-guanidino-butyl]-methyl-carbamoyl}-4-guanidino-butyl)-amide], the Ki in assay [1] is 0.003 µM; in assay [2] it was 0.0016 µM.
